Data as given in the NIST ThermoML archive (doi:10.1007/s10765-005-8096-3).
± gives the expanded uncertainty stated by the source.

Test: refractive index (Na D-line) (dimensionless)
Details: 298.15 K; 101.33 kPa; Liquid; Standard Abbe refractometry

Q: Which refractive index does the source give for `CC(C)(C)c1ccccc1` [(1,1-dimethylethyl)benzene] here?
A: 1.49003 ± 0.00075

Q: Which refractive index does the source give for `CC(C)c1ccccc1` [isopropylbenzene] here?
A: 1.48869 ± 0.00075

Q: For `CCc1ccccc1` [ethylbenzene], which refractive index is on record?
A: 1.49316 ± 0.00075

Q: Which refractive index does the source give for `CCCCOC(C)=O` [butyl ethanoate] here?
A: 1.39176 ± 0.00075

Q: With `Cc1ccc(C)cc1` [1,4-dimethylbenzene] as the compound, how does the refractive index read?
A: 1.49298 ± 0.00075

Q: Which refractive index does the source give for `CC(C)Cc1ccccc1` [(2-methylpropyl)benzene] here?
A: 1.48397 ± 0.00075

Q: Which refractive index does the source give for `Cc1ccccc1` [toluene] here?
A: 1.49399 ± 0.00075

Q: With `CCCCc1ccccc1` [butylbenzene] as the compound, how does the refractive index read?
A: 1.48735 ± 0.00075

Q: With `Cc1cc(C)cc(C)c1` [1,3,5-trimethylbenzene] as the compound, how does the refractive index read?
A: 1.49682 ± 0.00075
